Assay results as given in paper PMC5884652, “New antimicrobial peptide kills drug-resistant pathogens without detectable resistance” (Oncotarget, 2018).
In brackets after ≈: the same amount, converted by molar mass.

Experiments:
Assay in all cases: microbe, parasite or virus in culture
S. aureus 3511 = type: cell-based, Staphylococcus aureus; details: Staphylococcus aureus, 3511; pH (I or II) not given; 10 mM sodium phosphate buffer, 10% LB; 37° C, 24 h; mean of 3 experiments
Description: (§1) The method for peptide synthesis has been described in detail previously. E. coli ATCC 25922 (LB media), P. aeruginosa ATCC 15692 (NB+0.5% NaCl media), Listeria monocytogenes ATCC 3710 (LB media), Staphylococcus epidermidis ATCC 12228 (LB media), and S. aureus ATCC 29213 (TSB media) were obtained from the American Type Culture Collection (Manassas, VA, USA). Bacillus subtilis KCTC 1998 (LB media), Salmonella typhimurium KCTC 1926 (NB media), and Proteus vulgaris KCTC 2433 (NB media) were obtained from the Korean Collection for Type Cultures (Jeollabuk-do, Korea). E. coli CCARM 1238 was received from the Culture Collection of Antibiotic Resistant Microbes at Seoul Women’s University, Korea. Drug-resistant P. aeruginosa 3543, 3904, 3547, and 4007 and S. aureus 3126, 0027, 5157, 1635, 4761, 5159, 3359, 2122, 1630, 1870, 3511, 5156, and 3518 were resistant strains isolated from patients with otitis media in a Chonnam National University’s hospital.
(§2) The antibacterial activities of AMPs (melittin, clavaspirin, and its analogs) and conventional antibiotic drugs (erythromycin, gentamicin, ampicillin, and piperacidin) were determined using microdilution assays. Bacterial cells were cultured at 37° C in appropriate culture media at pH 5.5 or pH 7.4 until collection during the mid-log phase and suspended in 10 mM sodium phosphate buffer (pH 5.5 or pH 7.4) supplemented with 10% culture medium. Thereafter, 2× serial dilutions of each peptide (0.25–128 μM) or antibiotic (0.25–256 μM) were added to sterile 96-well plates, and aliquots of cell suspension (5 × 10^5 colony forming units (cfu)/mL) were seeded into each well. The samples were then incubated at 37° C for 24 h. At the end of the incubation, the minimum inhibitory concentrations (MICs) of the peptides were determined using a VERSA Max microplate reader (Molecular Devices Co., Sunnyvale, CA, USA) at a wavelength of 600 nm. […] MIC values were calculated as the mean of 3 independent experiments conducted in triplicate.

S. aureus 3126 = type: cell-based, Staphylococcus aureus; details: Staphylococcus aureus, 3126; pH (I or II) not given; 10 mM sodium phosphate buffer, 10% LB; 37° C, 24 h; mean of 3 experiments
Description: as §1, §2

S. aureus 1870 = type: cell-based, Staphylococcus aureus; details: Staphylococcus aureus, 1870; pH (I or II) not given; 10 mM sodium phosphate buffer, 10% LB; 37° C, 24 h; mean of 3 experiments
Description: as §1, §2

S. aureus 5157 = type: cell-based, Staphylococcus aureus; details: Staphylococcus aureus, 5157; pH (I or II) not given; 10 mM sodium phosphate buffer, 10% LB; 37° C, 24 h; mean of 3 experiments
Description: as §1, §2

S. aureus 1630 = type: cell-based, Staphylococcus aureus; details: Staphylococcus aureus, 1630; pH (I or II) not given; 10 mM sodium phosphate buffer, 10% LB; 37° C, 24 h; mean of 3 experiments
Description: as §1, §2

S. aureus 2122 = type: cell-based, Staphylococcus aureus; details: Staphylococcus aureus, 2122; pH (I or II) not given; 10 mM sodium phosphate buffer, 10% LB; 37° C, 24 h; mean of 3 experiments
Description: as §1, §2

S. aureus 3518 = type: cell-based, Staphylococcus aureus; details: Staphylococcus aureus, 3518; pH (I or II) not given; 10 mM sodium phosphate buffer, 10% LB; 37° C, 24 h; mean of 3 experiments
Description: as §1, §2

S. aureus 3359 = type: cell-based, Staphylococcus aureus; details: Staphylococcus aureus, 3359; pH (I or II) not given; 10 mM sodium phosphate buffer, 10% LB; 37° C, 24 h; mean of 3 experiments
Description: as §1, §2

S. aureus 4761 = type: cell-based, Staphylococcus aureus; details: Staphylococcus aureus, 4761; pH (I or II) not given; 10 mM sodium phosphate buffer, 10% LB; 37° C, 24 h; mean of 3 experiments
Description: as §1, §2

S. aureus 0027 = type: cell-based, Staphylococcus aureus; details: Staphylococcus aureus, 0027; pH (I or II) not given; 10 mM sodium phosphate buffer, 10% LB; 37° C, 24 h; mean of 3 experiments
Description: as §1, §2

S. aureus 1635 = type: cell-based, Staphylococcus aureus; details: Staphylococcus aureus, 1635; pH (I or II) not given; 10 mM sodium phosphate buffer, 10% LB; 37° C, 24 h; mean of 3 experiments
Description: as §1, §2

S. aureus 5159 = type: cell-based, Staphylococcus aureus; details: Staphylococcus aureus, 5159; pH (I or II) not given; 10 mM sodium phosphate buffer, 10% LB; 37° C, 24 h; mean of 3 experiments
Description: as §1, §2

S. aureus 5156 = type: cell-based, Staphylococcus aureus; details: Staphylococcus aureus, 5156; pH (I or II) not given; 10 mM sodium phosphate buffer, 10% LB; 37° C, 24 h; mean of 3 experiments
Description: as §1, §2

E. coli CCARM1238 = type: cell-based, Escherichia coli; details: Escherichia coli, CCARM1238; pH (I or II) not given; 10 mM sodium phosphate buffer, 10% LB; 37° C, 24 h; mean of 3 experiments
Description: as §1, §2

P. aeruginosa 3547 = type: cell-based, Pseudomonas aeruginosa; details: Pseudomonas aeruginosa, 3547; pH (I or II) not given; 10 mM sodium phosphate buffer, 10% LB; 37° C, 24 h; mean of 3 experiments
Description: as §1, §2

P. aeruginosa 3904 = type: cell-based, Pseudomonas aeruginosa; details: Pseudomonas aeruginosa, 3904; pH (I or II) not given; 10 mM sodium phosphate buffer, 10% LB; 37° C, 24 h; mean of 3 experiments
Description: as §1, §2

P. aeruginosa 3543 = type: cell-based, Pseudomonas aeruginosa; details: Pseudomonas aeruginosa, 3543; pH (I or II) not given; 10 mM sodium phosphate buffer, 10% LB; 37° C, 24 h; mean of 3 experiments
Description: as §1, §2

P. aeruginosa 4007 = type: cell-based, Pseudomonas aeruginosa; details: Pseudomonas aeruginosa, 4007; pH (I or II) not given; 10 mM sodium phosphate buffer, 10% LB; 37° C, 24 h; mean of 3 experiments
Description: as §1, §2

Row | Compound | MIC (S. aureus 3511) [µM] | MIC (S. aureus 3126) [µM] | MIC (S. aureus 1870) [µM] | MIC (S. aureus 5157) [µM] | MIC (S. aureus 1630) [µM] | MIC (S. aureus 2122) [µM] | MIC (S. aureus 3518) [µM] | MIC (S. aureus 3359) [µM] | MIC (S. aureus 4761) [µM] | MIC (S. aureus 0027) [µM] | MIC (S. aureus 1635) [µM] | MIC (S. aureus 5159) [µM] | MIC (S. aureus 5156) [µM] | MIC (E. coli CCARM1238) [µM] | MIC (P. aeruginosa 3547) [µM] | MIC (P. aeruginosa 3904) [µM] | MIC (P. aeruginosa 3543) [µM] | MIC (P. aeruginosa 4007) [µM]
1 | CNC(C)C1CCC(N)C(OC2C(N)CC(N)C(OC3OCC(C)(O)C(NC)C3O)C2O)O1 (stereo not drawn) [gentamicin] | > 256 | 32 (≈ 15.3 µg/mL) | 16 (≈ 7.64 µg/mL) | 16 (≈ 7.64 µg/mL) | 64 (≈ 30.6 µg/mL) | 128 (≈ 61.1 µg/mL) | > 256 | 64 (≈ 30.6 µg/mL) | 32 (≈ 15.3 µg/mL) | 64 (≈ 30.6 µg/mL) | > 256 | 16 (≈ 7.64 µg/mL) | > 256 |  |  |  |  | 
2 | CC1(C)S[C@@H]2[C@H](NC(=O)[C@H](N)c3ccccc3)C(=O)N2[C@H]1C(=O)O [ampicillin] |  |  |  |  |  |  |  |  |  |  |  |  |  | > 800 | 400 (≈ 140 µg/mL) | > 800 | > 800 | > 800
